The source of these data is US20100197628A1, “METHODS OF TREATING PSYCHIATRIC, SUBSTANCE ABUSE, AND OTHER DISORDERS USING COMBINATIONS CONTAINING OMEGA-3 FATTY ACIDS” (priority 2003, published 2010).

The conditions of series [1]: ingestion of large amounts in preclinical studies; cited from earlier work.
The conditions of series [2]: cited from earlier work.
Another series concerns brain phosphodiesters. The experiment in a line: Phosphorus-31 MR spectroscopy of lipid metabolite resonances during chronic CDP-choline administration. To be noted: 18 healthy subjects, mean age 70; 500 mg oral daily for 6 weeks, weeks 6-12 half continued, half placebo; p=0.008. The series is classed as in vivo, human. Here is the method: (§1) To assess whether chronic CDP-choline administration leads to detectable changes in lipid metabolite resonances in phosphorus-31 MR spectra, eighteen healthy subjects (mean age: 70) were administered 500 mg of an oral formulation of CDP-choline daily for a six week period. From weeks 6 to 12, half of the subjects continued to receive CDP-choline and half received placebo in a double-blind fashion. […] CDP-choline administration, therefore, improves measures of verbal fluency and spatial memory in healthy adults and results in increased brain phospholipid synthesis in older adults, particularly during chronic administration.

The next series deals with healthy subjects. The experiment in a line: Neuropsychological testing during chronic CDP-choline administration. To be noted: across all subjects at week twelve, 500 mg oral daily. In kind it is in vivo, human. Here is the method: as §1
Another series concerns depressed subjects. The experiment in a line: 17-item Hamilton Depression Rating Scale (HDRS), eight weeks of treatment. The series is classed as in vivo, human. Here is the method:
(§2) In a second study, twelve depressed subjects (mean age 40) received 500 mg of an oral formulation of CDP-choline twice daily for eight weeks.

In series [3] the test system is rats. The experiment in a line: Forced swim test (FST) with citicoline, cytidine and choline. In kind it is in vivo, rat. To be noted: IP; for antidepressant effects in the FST: citicoline 50-500 mg/kg, cytidine 23.8-238 mg/kg, choline 13.7-136.6 mg/kg (molar equivalent amounts). Here is the method: The effects of citicoline were examined in the forced swim test (FST), a rodent model of depression as described herein. Because citicoline is rapidly converted to cytidine and choline, their effects were also examined in the FST.
Forced Swim Test (FST): One hundred-sixty seven rats were used in the FST studies, which were conducted as described previously (Carlezon et al. Biol. Psychiatry 51:882-889, 2002) with minor modifications. The FST is a two-day procedure in which rats swim under conditions in which escape is not possible. On the first day, rats are placed in clear, 65 cm tall-25 cm diameter cylinders filled to 48 cm with 25° C. water. The rats initially struggle to escape from the water, but eventually they adopt a posture of immobility in which they make only the movements necessary to keep their heads above water. After 15 min of forced swimming, the rats are removed from the water, dried with towels, and placed in a warmed enclosure for 30 min. The cylinders are emptied and cleaned between rats. When the rats are re-tested 24 hours later under identical conditions in 5 min sessions, immobility is increased. Treatment with standard antidepressant drugs within the 24 hr period between the first exposure to forced swimming and re-testing can attenuate facilitated immobility, an effect correlated with antidepressant efficacy in humans (Porsolt et al. Nature 266:730-732 1977; Detke et al. Psychopharmacology 121:66-72 1995, Carlezon et al. Biol. Psychiatry 51:882-889, 2002).

Series [4] has as its system cytosolic choline resonance in the anterior cingulate cortex. The experiment in a line: Proton MR spectroscopy of cytosolic choline resonance. In kind it is in vivo, human. As to conditions: associated with a successful response; 500 mg twice daily, eight weeks. Here is the method:
as §2

Series [5] deals with rats. The experiment in a line: Conditioned rewarding effects of cytidine. As to conditions: 238 mg/kg, IP. In kind it is in vivo, rat.
The subject of series [6] is rats. The experiment in a line: Locomotor activity after cytidine. In kind it is in vivo, rat. As to conditions: 238 mg/kg, IP (optimally effective dose).
Series [7] has as its system children with ADHD. The experiment in a line: Infrared motion analysis of activity during the attention test. In kind it is in vivo, human. The text has this: A new fMRI procedure (T2 relaxometry or “T2-RT”) was developed to indirectly assess blood volume in the striatum (caudate and putamen) of boys 6-12 years of age under steady-state conditions. Six healthy control boys (10.2±1.5 yr) and eleven boys diagnosed with ADHD (9.3±1.6 yr) served as subjects in the study to examine fMRI differences between unmedicated healthy controls and ADHD children on either placebo or the highest dose of methylphenidate. The healthy controls were screened using structured diagnostic interview (K-SADS-E; Orvaschel, H. & Puig-Antich, J., The schedule for affective disorders and schizophrenia for school-age children-epidemiologic version (Kiddie-SADS-E), University of Pittsburgh, Pittsburgh, Pa., 1987), were free of any major psychiatric disorder, and had no more than 3 out of 9 possible symptoms of inattention or hyperactivity-impulsivity by DSM-IV criteria. Children with ADHD were included if they met criteria for ADHD on structured diagnostic interview, and had at least 6 of 9 symptoms of inattention or hyperactivity-impulsivity. Children with ADHD took part in a triple blind (parent, child, rater), randomized, placebo-controlled study of effects of methylphenidate (0, 0.5, 0.8, 1.5 mg/kg in divided dose) on activity, attention, and fMRI. […] Activity and attention were evaluated in unmedicated healthy controls using the same procedure as children with ADHD, and fMRI followed within the same time frame.
(§3) Highly accurate laboratory-based measures of activity and attention were obtained by having the children perform a computerized vigilance test while an infrared motion analysis system captured and recorded movements (see Methods). […]
Assessment of Activity and Attention. […] In brief, children sat in front of a computer and were evaluated using a simple GO/NO−GO CPT in which the subject responds to visual presentation of a target and withholds response to a non-target stimuli that appear in the center of the screen at a fixed 2 second […] interval (Greenberg et al., Psychopharmacol. Bull. 23: 279-282, 1987). […] Three 5-minute test sessions were recorded during a 30-minute test period while an infrared motion analysis system (Qualisys, Glastonbury, Conn.) recorded the movement of small reflective markers attached to the head, shoulder, elbow, and back of the child. […] Results were analyzed using the concept of “micro-events.” A new micro-event begins when the marker moves 1.0 millimeters or more from its most recent resting location, and is defined by its position and duration. The spatial scaling exponent is a measure of the spatial complexity of the movement path, and is calculated from the logarithmic rate of information decay at progressively lower levels of resolution. […]

Series [8] deals with children with ADHD. The experiment in a line: Computerized continuous performance task (CPT), measure of attention. In kind it is in vivo, human. Here is the method: A new fMRI procedure (T2 relaxometry or “T2-RT”) was developed to indirectly assess blood volume in the striatum (caudate and putamen) of boys 6-12 years of age under steady-state conditions. Six healthy control boys (10.2±1.5 yr) and eleven boys diagnosed with ADHD (9.3±1.6 yr) served as subjects in the study to examine fMRI differences between unmedicated healthy controls and ADHD children on either placebo or the highest dose of methylphenidate. […] Activity and attention were evaluated in unmedicated healthy controls using the same procedure as children with ADHD, and fMRI followed within the same time frame.
as §3
Assessment of Activity and Attention. […] In brief, children sat in front of a computer and were evaluated using a simple GO/NO−GO CPT in which the subject responds to visual presentation of a target and withholds response to a non-target stimuli that appear in the center of the screen at a fixed 2 second […] interval (Greenberg et al., Psychopharmacol. Bull. 23: 279-282, 1987). […]
Statistical Analyses. Differences between groups was assessed using ANCOVA with age as a covariate. […]

Series [9] concerns putamen, caudate and thalamus of children with ADHD. The experiment in a line: T2 relaxometry fMRI (T2-RT), indirect measure of regional blood volume. The series is classed as in vivo, human. As to conditions: ongoing treatment. The source says: A new fMRI procedure (T2 relaxometry or “T2-RT”) was developed to indirectly assess blood volume in the striatum (caudate and putamen) of boys 6-12 years of age under steady-state conditions. Six healthy control boys (10.2±1.5 yr) and eleven boys diagnosed with ADHD (9.3±1.6 yr) served as subjects in the study to examine fMRI differences between unmedicated healthy controls and ADHD children on either placebo or the highest dose of methylphenidate. The healthy controls were screened using structured diagnostic interview (K-SADS-E; Orvaschel, H. & Puig-Antich, J., The schedule for affective disorders and schizophrenia for school-age children-epidemiologic version (Kiddie-SADS-E), University of Pittsburgh, Pittsburgh, Pa., 1987), were free of any major psychiatric disorder, and had no more than 3 out of 9 possible symptoms of inattention or hyperactivity-impulsivity by DSM-IV criteria. Children with ADHD were included if they met criteria for ADHD on structured diagnostic interview, and had at least 6 of 9 symptoms of inattention or hyperactivity-impulsivity. Children with ADHD took part in a triple blind (parent, child, rater), randomized, placebo-controlled study of effects of methylphenidate (0, 0.5, 0.8, 1.5 mg/kg in divided dose) on activity, attention, and fMRI. Children with ADHD were treated continuously for one week with placebo or a specific dose of methylphenidate and at the end of the week were tested for drug efficacy using objective measures of attention and activity and fMRI (See Methods) within 1-3 hours of their afternoon dose. The time between dose and testing was held constant for each subject throughout the four treatment conditions. Activity and attention were evaluated in unmedicated healthy controls using the same procedure as children with ADHD, and fMRI followed within the same time frame.
T2 relaxometry, a novel fMRI procedure, was used to derive steady state blood flow measures and to test for enduring medication effects. […] T2 relaxometry, like BOLD, hinges on the paramagnetic properties of deoxyhemoglobin. […]

Setting [10] is: eight weeks, CDP-choline 500 mg twice daily, fluoxetine 20 mg/day.
Where [11] appears, read: children with ADHD, methylphenidate vs placebo, P<0.05.

Some results are limits rather than exact numbers.

As to `C[N+](C)(C)CCOP(=O)(O)OP(=O)([O-])OC[C@H]1O[C@@H](n2ccc(N)nc2=O)[C@H](O)[C@@H]1O` [CDP-choline, cytidine 5′-diphosphocholine], the toxicity symptoms result in series [1] is reported as “common cholinergic symptoms”. For the same molecule, in series [2] (orally administered), the “CDP-choline and/or its metabolites absorbed” value is “more than 99%” and the excreted in feces entry was “less than 1%”. Also, in series [2] (share of dose), the excretion route lung is on record as 12.9%; the excretion route urine was 2.4%; the “rest of the dose metabolized and retained in tissues” value was 83.9%. In addition, in the series with brain phosphodiesters, the “brain phosphodiesters (phosphorus-31 MR)” value was “significant increase”. For the same molecule, the visuospatial learning entry in the series on healthy subjects (p=0.0001) is “increases”. Also, in the series with healthy subjects (p=0.003), the verbal learning entry is given as “increases”. Further, the verbal fluency entry in the series with healthy subjects (p=0.07) is “increases”. In addition, in the series on depressed subjects (CDP-choline 500 mg oral twice daily, fluoxetine open label 20 mg/day, p<0.0001), the “mean 17-item HDRS score with eight weeks of treatment” value is 10±7. Besides, the “mean 17-item HDRS score before treatment” value with depressed subjects (baseline, CDP-choline 12 subjects, fluoxetine 41 subjects) was determined as 21±3. Besides, in the series on depressed subjects (setting [10]), the “complete responses (subjects/total)” value is listed as 6/12 and the “complete responses, share of subjects” value is 50%. The “antidepressant effects in the FST” value with rats [3] was “did not have antidepressant effects”. For the same molecule, in the series on rats [3] (high doses of citicoline), the “effect in the FST at high doses” value was “small pro-depressant effects”. For the same molecule, the “proton MR spectroscopic cytosolic choline resonance in the anterior cingulate cortex” value in series [4] is “reduction”.

Turning to `Nc1ccn([C@@H]2O[C@H](CO)[C@@H](O)[C@H]2O)c(=O)n1` [cytidine], in the series on rats [5], the conditioned rewarding effects result is “did not affect locomotor activity or establish conditioned rewarding effects”. Further, the locomotor activity entry in the series with rats [6] was “did not affect locomotor activity”. Moreover, the “antidepressant effects in the FST” value in the series on rats [3] was “significant antidepressant effects”.

On to `COC(=O)C(c1ccccc1)C1CCCCN1` (centres unmarked) [methylphenidate], for which the “increase in spatial complexity” value is on record as under 8% with children with ADHD [7] (5 ADHD children not objectively hyperactive on placebo, p>0.6) and 52.6% in the series on children with ADHD [7] (6 subjects objectively hyperactive on placebo, P<0.02). In the series on children with ADHD [7] (setting [11]), the “complexity of the movement pattern” value is given as “increasing”. In addition, the “increase in time spent immobile” value in the series with children with ADHD [7] (setting [11]) was found to be 126%. In addition, the “response variability (S.D.) of response latency” value in the series on children with ADHD [8] (children with ADHD on methylphenidate (placebo 242 msec), P<0.005) was found to be 149 ms. Further, the “performance accuracy on the CPT” value in the series on children with ADHD [8] (children with ADHD, methylphenidate vs placebo, one week of treatment, P<0.05) was “enhancing”. For the same molecule, in [9] (P=0.08), the “T2-RT in right caudate” value is listed as “trend-level difference”. Further, in series [9] (P>0.7), the T2-RT in thalamus result was “failed to exert significant effects”. Further, the “T2-RT in right and left putamen” value in series [9] (response tied to unmedicated activity state, P=0.006) was “significantly altered”.
